Results on 34 compounds are retold here after US9714239B2, “N-phenyl-lactam derivatives capable of stimulating neurogenesis and their use in the treatment of neurological disorders” (Hoffmann-La Roche Inc., priority 2014, dated 2017).

Structures are written as SMILES.

In the assay the test system is human embryonic stem cell derived neural stem cells (NSCs). Nature of the assay: Neurogenesis assay: neural stem cell proliferation assay. The note with it: 96 h, compound concentration at which 150% activity of control (100%) is reached, increase in cells based on ATP levels (CellTiterGlo), 4 days incubation, dose response 8 μM to 8 nM. The procedure: Neural Stem Cell Proliferation Assay
Neurogenic properties of small molecules are determined based on the proliferation of human embryonic stem cell derived neural stem cells (NSCs) which were derived via a dual smad inhibition as previously described (Chambers, S. M., et al., Highly efficient neural conversion of human ES and iPS cells by dual inhibition of SMAD signaling, Nature biotechnology, 2009 27(3): p. 275-80.).
Compounds response is measured by the increase in cells based on ATP levels (Promega:CellTiterGlo®) after an incubation period of 4 days. NSCs are thawed and expanded over 3 passages. On the 14th day, NSCs are seeded in Polyornithin/Laminin coated 384 well plates at a cell density of 21,000 cells/cm^2 in a media volume of 38 μl.
4 hours after cell seeding, compound solutions are added at a volume of 2 μl. Stock solutions of the compounds (water, 5% DMSO) are diluted to obtain a dose response (11 points, dilution factor is 2), ranging from 8 μM to 8 nM. Controls are run to consistently determine the neurogenic properties of the cells:
Negative (neutral) control is cell culture Media (final DMSO concentration: 0.25%).
1. cell culture Media+100 ng/ml FGF2 (final DMSO concentration: 0.1%)
2. cell culture Media+20 ng/ml EGF (final DMSO concentration: 0.1%)
3. cell culture Media+100 ng/ml Wnt3a (final DMSO concentration: 0.1%)
After 4 days incubation at 37° C., 5% CO2, the amount of ATP per well is quantified. The ATP concentration is proportional to the cell number. ATP is quantified by using the Promega CellTiterGlo® kit. The CellTiterGlo® reagents contain a cell lysis buffer, a thermo stable luciferase (UltraGlo™ recombinant luciferase), magnesium and luciferin. Luciferin reacts with ATP producing oxyluciferin, AMP and light. The luminescence signal is proportional to the ATP content.
The value of negative (neutral) control is determined for each assay plate by taking the average of 16 negative control wells. The neurogenic compound response is calculated for each compound as (compound/Negative Control)*100. The values of EC150 from the dose response curve are determined for each test compound. The EC150 is the compound concentration at which 150% activity of control (100%) is reached.
For the compound `CCC1(c2ccccc2)CCN(c2ccc(-c3cnco3)c(OC)c2)C1=O` (stereo not shown) [Example 1, 3-Ethyl-1-(3-methoxy-4-(oxazol-5-yl)phenyl)-3-phenylpyrrolidin-2-one], the EC (150% of control) is 3.23 µM.

`O=C1N(Cc2ccccc2)CCN1c1ccc(-c2ccncc2)cc1` [Example 2, 1-Benzyl-3-(4-(pyridin-4-yl)phenyl)imidazolidin-2-one] yielded an EC (150% of control) of 1.04 µM.

For `COc1cccc(C2CCN(c3ccc(-c4cnco4)c(OC)c3)C2=O)c1` (stereo not shown) [Example 3, 1-(3-Methoxy-4-oxazol-5-yl-phenyl)-3-(3-methoxyphenyl)pyrrolidin-2-one], the EC (150% of control) was determined as 0.0814 µM.

As for `COc1cc(N2CCC(c3ccccc3Cl)C2=O)ccc1-c1cnco1` (stereo not shown) [Example 4, 3-(2-Chlorophenyl)-1-(3-methoxy-4-oxazol-5-yl-phenyl)pyrrolidin-2-one], the EC (150% of control) stood at 0.678 µM.

In turn, `COc1cc(N2CCCN(Cc3ccccc3)C2=O)ccc1-c1cn[nH]c1` [Example 5, 1-Benzyl-3-[3-methoxy-4-(1H-pyrazol-4-yl)phenyl]hexahydropyrimidin-2-one] had an EC (150% of control) of 1.33 µM.

For the compound `COc1cc(N2CCCN(Cc3ccccc3Cl)C2=O)ccc1-c1cn[nH]c1` [Example 6, 1-[(2-Chlorophenyl)methyl]-3-[3-methoxy-4-(1H-pyrazol-4-yl)phenyl]hexahydropyrimidin-2-one], the EC (150% of control) worked out at 1.99 µM.

Compound `COc1cccc(CN2CCCN(c3ccc(-c4cn[nH]c4)c(OC)c3)C2=O)c1` [Example 7, 1-[(3-Methoxyphenyl)methyl]-3-[3-methoxy-4-(1H-pyrazol-4-yl)phenyl]hexahydropyrimidin-2-one] showed an EC (150% of control) of 0.114 µM.

`COc1cc(N2CCC(c3ccccc3)C2=O)ccc1-c1cnco1` (stereo not shown) [Example 8, 1-(3-Methoxy-4-oxazol-5-yl-phenyl)-3-phenyl-pyrrolidin-2-one] showed an EC (150% of control) of 0.471 µM.

Consider `COc1cc(N2CCN(Cc3ccccc3)C2=O)ccc1-c1cn[nH]c1` [Example 9, 1-Benzyl-3-[3-methoxy-4-(1H-pyrazol-4-yl)phenyl]imidazolidin-2-one], for which the EC (150% of control) turned out to be 0.161 µM.

On to `COc1cc(N2CCN(Cc3ccccc3Cl)C2=O)ccc1-c1cn[nH]c1` [Example 10, 1-[(2-Chlorophenyl)methyl]-3-[3-methoxy-4-(1H-pyrazol-4-yl)phenyl]imidazolidin-2-one], for which the EC (150% of control) worked out at 0.27 µM.

As to `COc1cccc(CN2CCN(c3ccc(-c4cn[nH]c4)c(OC)c3)C2=O)c1` [Example 11, 1-[(3-Methoxyphenyl)methyl]-3-[3-methoxy-4-(1H-pyrazol-4-yl)phenyl]imidazolidin-2-one], the EC (150% of control) amounted to 0.0239 µM.

`COc1cc(N2CCC(c3ccccc3)C2=O)ccc1-c1cn[nH]c1` (stereo not shown) [Example 12, 1-[3-Methoxy-4-(1H-pyrazol-4-yl)phenyl]-3-phenyl-pyrrolidin-2-one] came in with an EC (150% of control) of 0.0414 µM.

Compound `O=C1C(c2ccccc2)CCN1c1ccc(-c2cn[nH]c2)cc1` (stereo not shown) [Example 13, 3-Phenyl-1-[4-(1H-pyrazol-4-yl)phenyl]pyrrolidin-2-one] registered an EC (150% of control) of 0.205 µM.

As to `COc1cccc(C2CCN(c3ccc(-c4cn[nH]c4)cc3)C2=O)c1` (stereo not shown) [Example 14, 3-(3-Methoxyphenyl)-1-[4-(1H-pyrazol-4-yl)phenyl]pyrrolidin-2-one], the EC (150% of control) was found to be 0.0405 µM.

In the case of `O=C1C(c2ccc(Cl)cc2)CCN1c1ccc(-c2cn[nH]c2)cc1` (stereo not shown) [Example 15, 3-(4-Chlorophenyl)-1-[4-(1H-pyrazol-4-yl)phenyl]pyrrolidin-2-one], the EC (150% of control) was 0.384 µM.

Consider `O=C1C(c2ccc(F)cc2)CCN1c1ccc(-c2cn[nH]c2)cc1` (stereo not shown) [Example 16, 3-(4-Fluorophenyl)-1-[4-(1H-pyrazol-4-yl)phenyl]pyrrolidin-2-one], for which the EC (150% of control) came to 0.0417 µM.

Turning to `O=C1C(c2cccc(Cl)c2)CCN1c1ccc(-c2cn[nH]c2)cc1` (stereo not shown) [Example 17, 3-(3-Chlorophenyl)-1-[4-(1H-pyrazol-4-yl)phenyl]pyrrolidin-2-one], the EC (150% of control) worked out at 0.23 µM.

Take `COc1cc(N2CCN(Cc3cccc(Cl)c3)C2=O)ccc1-c1cn[nH]c1` [Example 18, 1-[(3-Chlorophenyl)methyl]-3-[3-methoxy-4-(1H-pyrazol-4-yl)phenyl]imidazolidin-2-one]: the EC (150% of control) was found to be 0.395 µM.

Regarding `COc1cc(N2CCN(Cc3cccc(F)c3)C2=O)ccc1-c1cn[nH]c1` [Example 19, 1-[(3-Fluorophenyl)methyl]-3-[3-methoxy-4-(1H-pyrazol-4-yl)phenyl]imidazolidin-2-one], the EC (150% of control) was determined as 0.047 µM.

Turning to `COc1cc(N2CCN(Cc3cccc(C(F)(F)F)c3)C2=O)ccc1-c1cn[nH]c1` [Example 20, 1-[3-Methoxy-4-(1H-pyrazol-4-yl)phenyl]-3-[[3-(trifluoromethyl)phenyl]methyl]imidazolidin-2-one], the EC (150% of control) turned out to be 0.0086 µM.

Compound `COc1cc(N2CCN(Cc3cccc(OC(F)(F)F)c3)C2=O)ccc1-c1cn[nH]c1` [Example 21, 1-[3-Methoxy-4-(1H-pyrazol-4-yl)phenyl]-3-[[3-(trifluoromethoxy)phenyl]methyl]imidazolidin-2-one] yielded an EC (150% of control) of 0.0092 µM.

Compound `CCOc1cccc(CN2CCN(c3ccc(-c4cn[nH]c4)c(OC)c3)C2=O)c1` [Example 22, 1-[(3-Ethoxyphenyl)methyl]-3-[3-methoxy-4-(1H-pyrazol-4-yl)phenyl]imidazolidin-2-one] displayed an EC (150% of control) of 0.0739 µM.

For `COc1cc(N2CCC(Cc3ccccc3)C2=O)ccc1-c1cn[nH]c1` (stereo not shown) [Example 23, 3-Benzyl-1-(3-methoxy-4-(1H-pyrazol-4-yl)phenyl)pyrrolidin-2-one], the EC (150% of control) is 0.612 µM.

Compound `COc1cccc(C2CCN(c3ccc(-c4cn[nH]c4)c(OC)c3)C2=O)c1` (stereo not shown) [Example 24, 1-(3-Methoxy-4-(1H-pyrazol-4-yl)phenyl)-3-(3-methoxyphenyl)pyrrolidin-2-one] came in with an EC (150% of control) of 0.0299 µM.

For the compound `COc1cc(N2CCC(c3cccc(Cl)c3)C2=O)ccc1-c1cn[nH]c1` (stereo not shown) [Example 25, 3-(3-Chlorophenyl)-1-(3-methoxy-4-(1H-pyrazol-4-yl)phenyl)pyrrolidin-2-one], the EC (150% of control) amounted to 0.0659 µM.

With `COc1cc(N2CCC(c3cccc(F)c3)C2=O)ccc1-c1cn[nH]c1` (stereo not shown) [Example 26, 3-(3-Fluorophenyl)-1-(3-methoxy-4-(1H-pyrazol-4-yl)phenyl)pyrrolidin-2-one], the EC (150% of control) was 0.0776 µM.

In turn, `COc1cccc(CN2CCN(c3ccc(-c4cn[nH]c4)cc3)C2=O)c1` [Example 27, 1-[(3-Methoxyphenyl)methyl]-3-[4-(1H-pyrazol-4-yl)phenyl]imidazolidin-2-one] gave an EC (150% of control) of 0.294 µM.

`COc1cccc(CN2CCN(c3ccc(-c4cn[nH]c4)c(C)c3)C2=O)c1` [Example 28, 1-[(3-Methoxyphenyl)methyl]-3-[3-methyl-4-(1H-pyrazol-4-yl)phenyl]imidazolidin-2-one] had an EC (150% of control) of 1.22 µM.

The compound `COc1cccc(CN2CCN(c3ccc(-c4cn[nH]c4)c(Cl)c3)C2=O)c1` [Example 29, 1-[3-Chloro-4-(1H-pyrazol-4-yl)phenyl]-3-[(3-methoxyphenyl)methyl]imidazolidin-2-one] registered an EC (150% of control) of 0.366 µM.

Compound `COc1cccc(CN2CCN(c3ccc(-c4cn[nH]c4)cc3F)C2=O)c1` [Example 30, 1-[2-Fluoro-4-(1H-pyrazol-4-yl)phenyl]-3-[(3-methoxyphenyl)methyl]imidazolidin-2-one] gave an EC (150% of control) of 0.0416 µM.

In turn, `COc1cccc(CN2CCN(c3ccc(-c4cn[nH]c4)c(F)c3)C2=O)c1` [Example 31, 1-[3-Fluoro-4-(1H-pyrazol-4-yl)phenyl]-3-[(3-methoxyphenyl)methyl]imidazolidin-2-one] came in with an EC (150% of control) of 0.0157 µM.

Take `CCOc1cc(N2CCN(Cc3cccc(OC)c3)C2=O)ccc1-c1cn[nH]c1` [Example 32, 1-[3-Ethoxy-4-(1H-pyrazol-4-yl)phenyl]-3-[(3-methoxyphenyl)methyl]imidazolidin-2-one]: the EC (150% of control) was 0.835 µM.

`COc1cc(N2CCN(Cc3ccccc3F)C2=O)ccc1-c1cn[nH]c1` [Example 33, 1-[(2-Fluorophenyl)methyl]-3-[3-methoxy-4-(1H-pyrazol-4-yl)phenyl]imidazolidin-2-one] gave an EC (150% of control) of 0.225 µM.

Take `COc1cc(N2CCN(Cc3ccccc3C)C2=O)ccc1-c1cn[nH]c1` [Example 34, 1-[3-Methoxy-4-(1H-pyrazol-4-yl)phenyl]-3-(o-tolylmethyl)imidazolidin-2-one]: the EC (150% of control) was found to be 0.2 µM.
